From patent publication US12428406B2 (PMV Pharmaceuticals, Inc., priority 2019, dated 2025)

Molecular target: T1, p53 Y220C (Homo sapiens, UniProt P04637, Y220C)
T1 construct: The recombinant protein was a truncation mutant containing only amino acids 94-312 of p53; made in house; host or cells: E. coli
Test: In vitro DNA binding activity assay (HTRF / TR-FRET): stabilization of p53 Y220C and increase of its DNA binding activity
Type: biochemical
Conditions: recombinant His-tagged p53 Y220C DNA binding domain (aa 94-312), biotin-labeled consensus DNA, incubated at 27° C. or 29° C. for 60 min
Outline: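 Test compounds, diluted 3-fold in DMSO from 4.5 mM stocks, were incubated with bacterially expressed His-tagged p53 Y220C at room temperature for 15 min, and after a further step for 20 min. DNA binding was detected by time-resolved FRET between APC and europium labels. SC150 marks the concentration increasing binding by 50%.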

T1 sequence (P04637 94-312, change not shown): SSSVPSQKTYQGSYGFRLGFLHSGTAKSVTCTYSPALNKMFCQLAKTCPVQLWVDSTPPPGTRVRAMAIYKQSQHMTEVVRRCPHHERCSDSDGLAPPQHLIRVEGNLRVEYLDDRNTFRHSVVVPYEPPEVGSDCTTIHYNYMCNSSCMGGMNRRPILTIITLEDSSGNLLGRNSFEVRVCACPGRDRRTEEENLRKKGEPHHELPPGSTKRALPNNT

| SC150 (concentration of the compound required to increase the DNA binding activity by 50%) | Compound |
| --- | --- |
| + (+ = 0 μM ≤ SC150 < 0.05 μM) | COc1cc(C(=O)O)ccc1NCC#Cc1cc2c(N[C@@H]3CCN(CC(=O)O)C[C@@H]3F)cccc2n1CC(F)(F)F [Compound 934A, 4-{[3-(4-{[(3S,4R)-1-(carboxymethyl)-3-fluoropiperidin-4-yl]amino}-1-(2,2,2-trifluoroethyl)-1H-indol-2-yl)prop-2-yn-1-yl]amino}-3-methoxybenzoic acid] |
| + (+ = 0 μM ≤ SC150 < 0.05 μM) | CCN1CC[C@@H](Nc2cccc3c2cc(C#CCNc2ccc(C(=O)NC)cc2OC)n3CC(F)(F)F)[C@@H](F)C1 [Compound 1074A, 4-{[3-(4-{[(3S,4R)-1-ethyl-3-fluoropiperidin-4-yl]amino}-1-(2,2,2-trifluoroethyl)-1H-indol-2-yl)prop-2-yn-1-yl]amino}-3-methoxy-N-methylbenzamide] |
| + (+ = 0 μM ≤ SC150 < 0.05 μM) | COc1cc(S(C)(=O)=O)ccc1NCC#Cc1cc2c(N[C@H]3CCN(C(C)(C)C)C[C@H]3F)cccc2n1CC(F)(F)F [Compound 1069A, N-[(3R,4S)-1-tert-butyl-3-fluoropiperidin-4-yl]-2-{3-[(4-methanesulfonyl-2-methoxyphenyl)amino]prop-1-yn-1-yl}-1-(2,2,2-trifluoroethyl)-1H-indol-4-amine] |
| +++ (+++ = 0.1 μM ≤ SC150 < 0.2 μM) | COc1cc(NC2CCOCC2)c2cc(C#CCNc3ccc(S(N)(=O)=O)cc3OC)n(CC(F)(F)F)c2c1 [Compound 1013A, 3-methoxy-4-[(3-{6-methoxy-4-[(oxan-4-yl)amino]-1-(2,2,2-trifluoroethyl)-1H-indol-2-yl}prop-2-yn-1-yl)amino]benzene-1-sulfonamide] |
| + (+ = 0 μM ≤ SC150 < 0.05 μM) | COc1cc(C(=O)O)ccc1NCC#Cc1cc2c(N[C@@H]3CCN(CC(=O)N(C)C)C[C@@H]3F)cccc2n1CC(F)(F)F [Compound 920A, 4-{[3-(4-{[(3S,4R)-1-[(dimethylcarbamoyl)methyl]-3-fluoropiperidin-4-yl]amino}-1-(2,2,2-trifluoroethyl)-1H-indol-2-yl)prop-2-yn-1-yl]amino}-3-methoxybenzoic acid] |
| + (+ = 0 μM ≤ SC150 < 0.05 μM) | CNC(=O)c1ccc(NCC#Cc2cc3c(N[C@@H]4CCN(C(C)(C)C)C[C@@H]4F)cccc3n2CC(F)(F)F)c(OC)c1 [Compound 1072A, 4-{[3-(4-{[(3S,4R)-1-tert-butyl-3-fluoropiperidin-4-yl]amino}-1-(2,2,2-trifluoroethyl)-1H-indol-2-yl)prop-2-yn-1-yl]amino}-3-methoxy-N-methylbenzamide] |
| + (+ = 0 μM ≤ SC150 < 0.05 μM) | COc1cc(C(=O)N[C@@H]2[C@@H](O)[C@H](O)[C@@H](CO)O[C@H]2O)ccc1NCC#Cc1cc2c(N[C@@H]3CCN(C)C[C@@H]3F)cccc2n1CC(F)(F)F [Compound 948A, 4-((3-(4-(((3S,4R)-3-fluoro-1-methylpiperidin-4-yl)amino)-1-(2,2,2-trifluoroethyl)-1H-indol-2-yl)prop-2-yn-1-yl)amino)-3-methoxy-N-((2R,3R,4R,5S,6R)-2,4,5-trihydroxy-6-(hydroxymethyl)tetrahydro-2H-pyran-3-yl)benzamide] |
| + (+ = 0 μM ≤ SC150 < 0.05 μM) | COc1cc(C(=O)N2CCC(N(C)C)CC2)ccc1NCC#Cc1cc2c(N[C@@H]3CCN(C)C[C@@H]3F)cccc2n1CC(F)(F)F [Compound 933A, 2-[3-({4-[4-(dimethylamino)piperidine-1-carbonyl]-2-methoxyphenyl}amino)prop-1-yn-1-yl]-N-[(3S,4R)-3-fluoro-1-methylpiperidin-4-yl]-1-(2,2,2-trifluoroethyl)-1H-indol-4-amine] |
| + (+ = 0 μM ≤ SC150 < 0.05 μM) | COc1cc(S(C)(=O)=O)ccc1NCC#Cc1cc2c(N[C@@H]3CCOC[C@@H]3F)cccc2n1CC(F)(F)F [Compound 1026A, N-[(3R,4R)-3-fluorooxan-4-yl]-2-{3-[(4-methanesulfonyl-2-methoxyphenyl)amino]prop-1-yn-1-yl}-1-(2,2,2-trifluoroethyl)-1H-indol-4-amine] |
| + (+ = 0 μM ≤ SC150 < 0.05 μM) | COc1cc(S(=O)(=O)N(C)C)ccc1NCC#Cc1cc2c(NC3CCS(=O)(=O)CC3)cccc2n1CC(F)(F)F [Compound 1044A, 4-[(3-{4-[(1,1-dioxo-1λ^6-thian-4-yl)amino]-1-(2,2,2-trifluoroethyl)-1H-indol-2-yl}prop-2-yn-1-yl)amino]-3-methoxy-N,N-dimethylbenzene-1-sulfonamide] |
| + (+ = 0 μM ≤ SC150 < 0.05 μM) | COc1cc(S(C)(=O)=O)ccc1NCC#Cc1cc2c(N[C@H]3CCO[C@@H](C)C3)cccc2n1CC(F)(F)F [Compound 1017A, 2-{3-[(4-methanesulfonyl-2-methoxyphenyl)amino]prop-1-yn-1-yl}-N-[(2S,4S)-2-methyloxan-4-yl]-1-(2,2,2-trifluoroethyl)-1H-indol-4-amine] |
| + (+ = 0 μM ≤ SC150 < 0.05 μM) | CCC(=O)N1CC[C@@H](Nc2cccc3c2cc(C#CCNc2ccc(S(C)(=O)=O)cc2OC)n3CC(F)(F)F)[C@@H](F)C1 [Compound 864A, 1-[(3S,4R)-3-fluoro-4-[(2-{3-[(4-methanesulfonyl-2-methoxyphenyl)amino]prop-1-yn-1-yl}-1-(2,2,2-trifluoroethyl)-1H-indol-4-yl)amino]piperidin-1-yl]propan-1-one] |

The next lines start with the compound.

| Compound | SC150 (concentration of the compound required to increase the DNA binding activity by 50%) |
| --- | --- |
| COCCN1CC[C@@H](Nc2cccc3c2cc(C#CCNc2ccc(S(C)(=O)=O)cc2OC)n3CC(F)(F)F)[C@@H](F)C1 [Compound 859A, N-[(3S,4R)-3-fluoro-1-(2-methoxyethyl)piperidin-4-yl]-2-{3-[(4-methanesulfonyl-2-methoxyphenyl)amino]prop-1-yn-1-yl}-1-(2,2,2-trifluoroethyl)-1H-indol-4-amine] | + (+ = 0 μM ≤ SC150 < 0.05 μM) |
| COc1cc(S(C)(=O)=O)ccc1NCC#Cc1cc2c(N[C@@H]3CCN4CCC[C@@H]4C3)cccc2n1CC(F)(F)F [Compound 765A, N-[(7R,8aR)-octahydroindolizin-7-yl]-2-{3-[(4-methanesulfonyl-2-methoxyphenyl)amino]prop-1-yn-1-yl}-1-(2,2,2-trifluoroethyl)-1H-indol-4-amine] | + (+ = 0 μM ≤ SC150 < 0.05 μM) |
| COCC(O)CN1CCC(Nc2cccc3c2cc(C#CCNc2ccc(S(C)(=O)=O)cc2OC)n3CC(F)(F)F)C1 (centres unmarked) [Compound 455A, 1-{3-[(2-{3-{(4-methanesulfonyl-2-methoxyphenyl)amino]prop-1-yn-1-yl}-1-(2,2,2-trifluoroethyl)-1H-indol-4-yl)amino]pyrrolidin-1-yl}-3-methoxypropan-2-ol] | + (+ = 0 μM ≤ SC150 < 0.05 μM) |
| COc1cc(S(C)(=O)=O)ccc1NCC#Cc1cc2c(NC3CCN(CCOC(C)=O)CC3)cccc2n1CC(F)(F)F [Compound 565A, 2-{4-[(2-{3-[(4-methanesulfonyl-2-methoxyphenyl)amino]prop-1-yn-1-yl}-1-(2,2,2-trifluoroethyl)-1H-indol-4-yl)amino]piperidin-1-yl}EtOAc] | + (+ = 0 μM ≤ SC150 < 0.05 μM) |
| COc1cc(C(=O)NCCO)ccc1NCC#Cc1cc2c(NC3CCN(C)CC3)cccc2n1CC(F)(F)F [Compound 496A] | + (+ = 0 μM ≤ SC150 < 0.05 μM) |
| CNC1CCC(Nc2cccc3c2cc(C#CCNc2ccc(S(C)(=O)=O)cc2OC)n3CC(F)(F)F)C(F)C1 (centres unmarked) [Compound 39A] | + (+ = 0 μM ≤ SC150 < 0.05 μM) |
| COc1cc(C(=O)O)ccc1NCC#Cc1cc2c(N[C@@H]3CCN(C)C[C@@H]3F)cccc2n1CC(F)(F)F [Compound 781A, 4-{[3-(4-{[(3S,4R)-3-fluoro-1-methylpiperidin-4-yl]amino}-1-(2,2,2-trifluoroethyl)-1H-indol-2-yl)prop-2-yn-1-yl]amino}-3-methoxybenzoic acid] | + (+ = 0 μM ≤ SC150 < 0.05 μM) |
| CC(C)C(=O)N(CC#Cc1cc2c(N[C@H]3CC[C@H](N4CC5(COC5)C4)CC3)cccc2n1CC(F)(F)F)c1ccc(S(C)(=O)=O)cc1O [Compound 218A, N-(2-hydroxy-4-methanesulfonylphenyl)-2-methyl-N-[3-(4-{[(1R,4R)-4-{2-oxa-6-azaspiro[3.3]heptan-6-yl}cyclohexyl]amino}-1-(2,2,2-trifluoroethyl)-1H-indol-2-yl)prop-2-yn-1-yl]propanamide] | ++++ (++++ = 0.2 μM ≤ SC150 < 1 μM) |
| COCC(O)CN1CCC(Nc2cccc3c2cc(C#CCNc2ccc(S(C)(=O)=O)cc2O)n3CC(F)(F)F)CC1 (centres unmarked) [Compound 621A, 2-{[3-(4-{[1-(2-hydroxy-3-methoxypropyl)piperidin-4-yl]amino}-1-(2,2,2-trifluoroethyl)-1H-indol-2-yl)prop-2-yn-1-yl]amino}-5-methanesulfonylphenol] | + (+ = 0 μM ≤ SC150 < 0.05 μM) |
| CCC(=O)N1CCC(Nc2cccc3c2cc(C#CCNc2ccc(S(C)(=O)=O)cc2OC)n3CC(F)(F)F)CC1 [Compound 756A] | + (+ = 0 μM ≤ SC150 < 0.05 μM) |
| COc1cc(C(N)=O)ccc1NCC#Cc1cc2c(N[C@H]3CCN(C)C[C@H]3F)cccc2n1CC(F)(F)F [Compound 801A, 4-{[3-(4-{[(3R,4S)-3-fluoro-1-methylpiperidin-4-yl]amino}-1-(2,2,2-trifluoroethyl)-1H-indol-2-yl)prop-2-yn-1-yl]amino}-3-methoxybenzamide] | + (+ = 0 μM ≤ SC150 < 0.05 μM) |
